“Also recorded” adds a separate entry of the source. Like-named read-outs stand apart in the source and are kept apart here.

For series [1], the system named is MAO-B. To be noted: ref 22; cited from earlier work.
In series [2] the test system is AChE. To be noted: cited from earlier work.
In series [3] the target is T1, Recombinant human MAO-A (Homo sapiens, UniProt P21397).
T1 construct: purchased Sigma-Aldrich
T1 sequence (P21397 1-527): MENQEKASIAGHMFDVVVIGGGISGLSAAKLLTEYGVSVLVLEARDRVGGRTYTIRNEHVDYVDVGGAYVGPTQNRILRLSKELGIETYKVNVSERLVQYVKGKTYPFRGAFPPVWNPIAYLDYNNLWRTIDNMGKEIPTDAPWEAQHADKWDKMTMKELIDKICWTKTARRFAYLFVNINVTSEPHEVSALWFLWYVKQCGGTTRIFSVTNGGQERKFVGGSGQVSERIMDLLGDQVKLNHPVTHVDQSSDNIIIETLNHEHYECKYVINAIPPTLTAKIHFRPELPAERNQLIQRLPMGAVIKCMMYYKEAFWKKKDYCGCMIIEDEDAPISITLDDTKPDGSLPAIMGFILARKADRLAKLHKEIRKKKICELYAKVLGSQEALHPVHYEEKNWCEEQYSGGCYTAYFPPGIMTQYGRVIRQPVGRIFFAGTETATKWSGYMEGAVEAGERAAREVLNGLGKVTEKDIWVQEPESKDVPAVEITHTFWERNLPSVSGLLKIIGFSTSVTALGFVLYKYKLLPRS
Description: biochemical. To be noted: for remaining activity at 10 µM: read-out: Residual activity at 10 µM (%) MAO-A. The method, then:
(§1) AChE and BChE inhibitory activities were measured after preincubating enzymes with inhibitors for 15 min before adding substrates (ATCI and BTCI, respectively) and DTNB. AChE activities were assayed as previously described, with slight modification[21],[22]. […] MAO-A and MAO-B activities were determined using a continuous spectrophotometric method, as described previously[23],[24]. […] Reaction rates are expressed as changes in absorbance per min.
(§2) Inhibitory patterns and Ki values were determined using Lineweaver–Burk (LB) plots and secondary plots of LB slopes.

Series [4] deals with T2, MAO-B (Homo sapiens, UniProt P27338).
T2 construct: purchased Sigma-Aldrich
T2 sequence (P27338 1-520): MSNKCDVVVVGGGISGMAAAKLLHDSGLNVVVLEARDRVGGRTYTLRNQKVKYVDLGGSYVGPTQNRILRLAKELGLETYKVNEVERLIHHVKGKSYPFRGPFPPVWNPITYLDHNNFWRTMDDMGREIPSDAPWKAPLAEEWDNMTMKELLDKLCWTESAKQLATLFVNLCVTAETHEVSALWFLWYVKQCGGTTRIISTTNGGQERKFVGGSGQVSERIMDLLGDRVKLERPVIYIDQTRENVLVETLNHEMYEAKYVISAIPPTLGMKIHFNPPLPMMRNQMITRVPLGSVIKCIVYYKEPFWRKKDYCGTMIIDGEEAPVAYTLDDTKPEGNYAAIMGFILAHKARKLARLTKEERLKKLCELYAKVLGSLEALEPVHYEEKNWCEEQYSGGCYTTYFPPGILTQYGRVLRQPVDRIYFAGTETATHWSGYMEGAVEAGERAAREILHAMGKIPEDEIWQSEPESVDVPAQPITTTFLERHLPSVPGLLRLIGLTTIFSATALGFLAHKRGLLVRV
The series can be described thus: biochemical. To be noted: for remaining activity at 10 µM: read-out: Residual activity at 10 µM (%) MAO-B. Here is the method:
as §1, §2

For series [5], the target named is T3, BACE-1 (Homo sapiens, UniProt P56817).
T3 construct: purchased Sigma-Aldrich
Description: BACE-1 activity detection kit (fluorescence). Conditions: read-out: Residual activity at 10 µM (%) BACE-1. It is filed as biochemical.

The nature of series [6]: Cytotoxicity test, CCK-8 assay. The method, then: (§3) Madin-Darby canine kidney (MDCK) cells and human acute promyelocytic leukemia (HL-60) cells were obtained from the Korean Cell Line Bank (Seoul, Korea). […] Cultures were maintained at 37 °C under 5% CO2, and media were changed every two days.
(§4) Cell viabilities were determined using the CCK-8 assay. Briefly, MDCK cells or HL-60 cells were resuspended at 1 × 10^5 or 3 × 10^5 cells/mL and suspensions (100 µL) were added to wells of a 96-well plate and incubated in 5% CO2 atmosphere at 37 °C for 24 h. After incubation, 100 µL of each medium was treated with compounds at 1, 3, 10, 30, or 50 µM and incubated in 5% CO2 at 37 °C for 24 h. CCK-8 (10 µL/well) was then added to 100 µL aliquots from each cell and incubated 2–4 h. Absorbances were measured at 450 nm using a microplate reader (Versamax, Molecular Devices, San Jose, CA, USA).
(§5) Both cell lines were treated with each compound (at 1, 3, 10, 30, or 50 µM) for 24 h. Culture supernatants were then removed and CCK-8 was added. […] Data are expressed as the means ± SDs of triplicate experiments.

The test system of series [7] is Madin-Darby canine kidney (MDCK) cells. The series can be described thus: Cytotoxicity test, CCK-8 assay. Conditions: 50 µM, 24 h, CCK-8. The method, then: as §3, §4, §5
Series [8] concerns human acute promyelocytic leukemia (HL-60) cells. The series can be described thus: Cytotoxicity test, CCK-8 assay. Conditions: 50 µM, 24 h, CCK-8. Here is the method: as §3, §4, §5
(Tetrazolium assays rely on reduction of a dye to a coloured formazan, in cell work by metabolically active cells.)

In series [9] the target is T4, BChE (equine serum) (Equus caballus, UniProt P81908).
T4 construct: BChE (equine serum); purchased Sigma-Aldrich; host or cells: equine serum
The series can be described thus: biochemical. To be noted: for remaining activity at 10 µM: read-out: Residual activity at 10 µM (%) BChE. Here is the method:
(§6) AChE and BChE inhibitory activities were measured after preincubating enzymes with inhibitors for 15 min before adding substrates (ATCI and BTCI, respectively) and DTNB. AChE activities were assayed as previously described, with slight modification[21],[22]. […] MAO-A and MAO-B activities were determined using a continuous spectrophotometric method, as described previously[23],[24]. […] Reaction rates are expressed as changes in absorbance per min. […]

The target of series [10] is AChE (Type VI-S from Electrophorus electricus) (Electrophorus electricus, UniProt O42275). The series can be described thus: biochemical. Conditions: for SI: IC50 for BChE divided by IC50 for AChE; for remaining activity at 10 µM: read-out: Residual activity at 10 µM (%) AChE. Here is the method: as §6
Series [11] deals with T5, AChE (Electrophorus electricus, UniProt O42275). The series can be described thus: Kinetics of AChE inhibition (Lineweaver-Burk and secondary plots). It is filed as biochemical. To be noted: for Mode of AChE inhibition: LB plots. Here is the method: as §2
Substrate concentrations ranged from 0.05 to 1.0 mM. […] Initial reaction rates are expressed as increases in absorbance per min.

Series [12] has as its target T5, AChE. Description: Reversibility of AChE inhibition by dialysis. It is filed as biochemical. Here is the method: (§7) After preincubating three compounds or reference inhibitors with enzymes for 15 min, residual activities of undialyzed (AU) and dialyzed (AD) samples were expressed as percentages of those of non-inhibitor treated controls. Reversibilities were assessed using AU and AD values and compared with those of reference compounds.
(§8) After preincubating the compounds with enzymes for 15 min, the mixtures were dialyzed for 6 h with two buffer changes. Results are the averages of duplicate or triplicate experiments.

Series [13] addresses T2, MAO-B. The series can be described thus: Reversibility of MAO-B inhibition by dialysis. It is filed as biochemical. Here is the method:
as §7, §8

Series [14] relates to MAO-B. Conditions: rat brain mitochondrial fractions; cited from earlier work.
For series [15], the target named is T2, MAO-B. Description: Kinetics of MAO-B inhibition (Lineweaver-Burk and secondary plots). It is filed as biochemical. Here is the method:
as §2

Chain of AChE (Type VI-S from Electrophorus electricus) (O42275 24-633): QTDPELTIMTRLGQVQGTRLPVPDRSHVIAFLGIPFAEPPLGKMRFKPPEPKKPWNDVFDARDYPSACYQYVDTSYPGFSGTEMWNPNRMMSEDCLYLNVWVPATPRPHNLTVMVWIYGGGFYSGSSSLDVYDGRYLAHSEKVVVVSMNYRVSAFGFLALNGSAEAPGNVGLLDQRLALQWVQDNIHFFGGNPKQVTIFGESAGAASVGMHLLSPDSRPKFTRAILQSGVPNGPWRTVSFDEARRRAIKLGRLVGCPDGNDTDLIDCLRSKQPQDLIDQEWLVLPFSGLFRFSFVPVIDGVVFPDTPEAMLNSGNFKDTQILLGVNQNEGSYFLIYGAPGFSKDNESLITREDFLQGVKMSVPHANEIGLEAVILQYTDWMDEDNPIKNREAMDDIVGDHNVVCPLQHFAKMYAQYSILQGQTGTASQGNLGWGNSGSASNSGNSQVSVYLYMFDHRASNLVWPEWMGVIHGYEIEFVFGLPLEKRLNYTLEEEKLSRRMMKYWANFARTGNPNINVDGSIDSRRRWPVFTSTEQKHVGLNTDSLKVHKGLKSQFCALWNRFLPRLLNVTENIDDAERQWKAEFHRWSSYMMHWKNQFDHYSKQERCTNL
T5 sequence (O42275 24-633): as above
T4 sequence (P81908 whole entry): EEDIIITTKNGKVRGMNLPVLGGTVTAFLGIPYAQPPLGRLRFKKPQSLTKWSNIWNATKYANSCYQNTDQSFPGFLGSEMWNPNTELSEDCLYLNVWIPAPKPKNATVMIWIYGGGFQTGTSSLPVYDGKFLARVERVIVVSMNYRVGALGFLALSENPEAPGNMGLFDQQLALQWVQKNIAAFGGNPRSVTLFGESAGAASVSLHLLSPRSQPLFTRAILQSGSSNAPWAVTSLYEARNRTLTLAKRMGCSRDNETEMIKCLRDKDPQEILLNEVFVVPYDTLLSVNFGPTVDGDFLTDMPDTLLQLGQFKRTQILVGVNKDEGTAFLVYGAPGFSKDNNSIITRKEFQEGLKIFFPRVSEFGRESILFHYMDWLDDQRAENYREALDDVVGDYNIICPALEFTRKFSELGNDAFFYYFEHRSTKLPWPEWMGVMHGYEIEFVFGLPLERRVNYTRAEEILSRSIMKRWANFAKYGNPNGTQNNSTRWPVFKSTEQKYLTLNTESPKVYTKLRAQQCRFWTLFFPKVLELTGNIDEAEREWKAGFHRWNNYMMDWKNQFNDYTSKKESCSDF
T3 sequence (P56817 46-457): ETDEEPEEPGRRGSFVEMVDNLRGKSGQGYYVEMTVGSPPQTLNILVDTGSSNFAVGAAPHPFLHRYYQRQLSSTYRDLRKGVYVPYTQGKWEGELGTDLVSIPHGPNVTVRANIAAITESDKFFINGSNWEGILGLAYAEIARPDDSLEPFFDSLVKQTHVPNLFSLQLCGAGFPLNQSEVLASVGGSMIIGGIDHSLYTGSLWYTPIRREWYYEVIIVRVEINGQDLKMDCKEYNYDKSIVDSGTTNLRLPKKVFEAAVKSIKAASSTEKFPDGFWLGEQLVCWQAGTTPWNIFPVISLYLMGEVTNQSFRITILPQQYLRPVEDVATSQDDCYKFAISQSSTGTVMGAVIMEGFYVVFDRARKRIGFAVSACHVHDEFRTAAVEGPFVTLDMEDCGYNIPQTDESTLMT

What is called IC50 is the concentration that gives 50% inhibition. Turning to `COc1cc(C[C@H](C)[C@H](C)Cc2ccc3c(c2)OCO3)ccc1O` [macelignan], the results for the concentration for half-maximal inhibition (IC50) in [1] and in series [2] (ref 22) were 7.42 µM and 4.16 µM, respectively.
In general, viability refers to a per cent measure of how many cells are alive, often set against a control. Read a high viability as less harm to the cells. What is called inhibition is the relative decrease from the control value, in per cent. Broadly, the Ki is the dissociation constant of the complex between target and ligand, obtained from inhibition or displacement. For the compound `COc1cc2c(=O)oc3c(OC)c(O)cc4c(=O)oc(c1OC)c2c34` [Compound 4, 3,3′,4-tri-O-methylellagic acid], the IC50 in series [3] (read-out: IC50 (µM) MAO-A) was greater than 40 µM; in series [4] (read-out: IC50 (µM) MAO-B), greater than 40 µM; in series [9], greater than 40 µM; in series [10] it was 10.7 ± 1 µM. Besides, the remaining activity at 10 µM came to 83.1 ± 4.7% in [3]; 89.1 ± 4.1% in series [4]; 90.1 ± 0.4% in series [5]; 92.3 ± 2.3% in series [9]; 53.2% in [10]. Moreover, the viability at 24 h, 50 µM in [6] (dog, MDCK cells) is 67.9%; in series [6] (human, HL-60 cells), 84.6%. Moreover, the MDCK cell viability entry in series [7] was “slightly or non-toxic; also recorded: non-toxic or slightly toxic”. The HL-60 cell viability result in [8] is given as “non-toxic or slightly toxic”. In series [10], this compound returned an SI greater than 3.7. For the same compound, in series [10] (read-out: Inhibition of AChE), the inhibition at 10 µM was roughly 50%. Besides, the “Mode of AChE inhibition” value in series [11] is recorded as “competitively; also recorded: competitive but partly mixed; also recorded: competitive but partially mixed”. Further, the Ki in series [11] (secondary plots of LB slopes, substrate 0.05-1.0 mM, read-out: Ki for AChE) amounted to 3.74 ± 0.26 µM. For the same compound, in series [12], the “Reversibility of AChE inhibition” value is reported as “reversibly; also recorded: reversible inhibitors”.
For `O=c1oc2c(O)c(O)cc3c(=O)oc4c(O)c(O)cc1c4c23` [Compound 5, ellagic acid], in series [13], the “Reversibility of MAO-B inhibition” value was “reversible inhibitors”. The IC50 was 0.412 µM in series [14]; greater than 40 µM in series [3]; 9.21 ± 0.16 µM in series [4]; 133 µM in [2] (ref 43); greater than 40 µM in [9]; 41.7 ± 2.4 µM in series [10]. The remaining activity at 10 µM in [3] amounted to 99.5 ± 0.7%; in [4], 45.4 ± 4.1%; in [5], 59.1 ± 0.3%; in series [9] it was 96.9 ± 5.8%; in series [10], 81.5 ± 4.2%. Further, the inhibition at 10 µM in [4] (10 µM) was greater than 50%. Besides, the MDCK cell viability entry in series [7] is “slightly or non-toxic; also recorded: negligible effects; also recorded: non-toxic or slightly toxic”. For the same compound, in series [8], the HL-60 cell viability result was “negligible effects; also recorded: non-toxic or slightly toxic”. Besides, the SI in [10] is greater than 1.0. For the same compound, the inhibition constant Ki in series [15] came to 7.51 ± 1.86 µM; in [11] it was 9.43 ± 2.51 µM. Besides, the “Mode of MAO-B inhibition” value in series [15] (LB plots) is on record as “competitive”. In addition, the “Mode of AChE inhibition” value in series [11] is recorded as “competitively; also recorded: competitive but partly mixed; also recorded: competitive but partially mixed”. Besides, the “Reversibility of AChE inhibition” value in series [12] is given as “reversibly; also recorded: reversible inhibitors”.

(Values after PMC8260592 (Scientific Reports, 2021).)
